{"source": "patent US8802597B2", "about": "“Herbicidal pyrimidines” (E I du Pont de Nemours and Company, priority 2003, dated 2014)", "assay_type_in_all_cases": "in vivo", "key": {"[1]": {"test_system": "barnyardgrass (Echinochloa crus-galli)", "assay": "Test A pre/postemergence", "method_in_brief": "(§1)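 After planting in loam and sand, species received test chemical as preemergence soil spray; postemergence spray went on 2–10 cm plants at 1–2 leaves at the same time. Evaluation: visual injury, ~10 d, 0 no effect to 100 complete control.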"}, "[2]": {"test_system": "crabgrass (Digitaria sanguinalis)", "assay": "Test A pre/postemergence", "method_in_brief": "as §1"}, "[3]": {"test_system": "giant foxtail (Setaria faberi)", "assay": "Test A pre/postemergence", "method_in_brief": "as §1"}, "[4]": {"test_system": "morningglory (Ipomoea spp.)", "assay": "Test A pre/postemergence", "method_in_brief": "as §1"}, "[5]": {"test_system": "redroot pigweed (Amaranthus retroflexus)", "assay": "Test A pre/postemergence", "method_in_brief": "as §1"}, "[6]": {"test_system": "velvetleaf (Abutilon theophrasti)", "assay": "Test A pre/postemergence", "method_in_brief": "as §1"}, "[7]": {"test_system": "barnyardgrass (Echinochloa crus-galli)", "assay": "Test E flooded paddy water application", "conditions": "Flood, 21 days, scale 0 to 100 (0 no effect, 100 complete control)", "method_in_brief": "(§2)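 Weeds sown in sterilized Tama silt loam (2.6% organic matter), greenhouse 29.5/26.7° C, 16-h photoperiod; at 2.0–2.5-leaf stage pots flooded to 3 cm and compound added to paddy water. Visual rating vs untreated controls after 21 days, 0 (no effect) to 100 (complete control).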"}, "[8]": {"test_system": "bearded (brdd.) sprangletop (Leptochloa fusca ssp. fascicularis)", "assay": "Test E flooded paddy water application", "conditions": "Flood, 21 days, scale 0 to 100 (0 no effect, 100 complete control)", "method_in_brief": "as §2"}, "[9]": {"test_system": "ducksalad (Heteranthera limosa)", "assay": "Test E flooded paddy water application", "conditions": "Flood, 21 days, scale 0 to 100 (0 no effect, 100 complete control)", "method_in_brief": "as §2"}, "[10]": {"test_system": "early watergrass (Echinochloa oryzoides)", "assay": "Test E flooded paddy water application", "conditions": "Flood, 21 days, scale 0 to 100 (0 no effect, 100 complete control)", "method_in_brief": "as §2"}, "[11]": {"test_system": "junglerice (Echinochloa colona)", "assay": "Test E flooded paddy water application", "conditions": "Flood, 21 days, scale 0 to 100 (0 no effect, 100 complete control)", "method_in_brief": "as §2"}, "[12]": {"test_system": "late watergrass (Echinochloa oryzicola)", "assay": "Test E flooded paddy water application", "conditions": "Flood, 21 days, scale 0 to 100 (0 no effect, 100 complete control)", "method_in_brief": "as §2"}, "[13]": {"test_system": "purple redstem (Ammannia coccinea)", "assay": "Test E flooded paddy water application", "conditions": "Flood, 21 days, scale 0 to 100 (0 no effect, 100 complete control)", "method_in_brief": "as §2"}, "[14]": {"test_system": "rice flatsedge (Cyperus iria)", "assay": "Test E flooded paddy water application", "conditions": "Flood, 21 days, scale 0 to 100 (0 no effect, 100 complete control)", "method_in_brief": "as §2"}, "[15]": {"test_system": "smallflower umbrella sedge (Cyperus difformis)", "assay": "Test E flooded paddy water application", "conditions": "Flood, 21 days, scale 0 to 100 (0 no effect, 100 complete control)", "method_in_brief": "as §2"}, "[16]": {"test_system": "transplanted rice seedlings (Oryza sativa cv. ‘Japonica-M202’)", "assay": "Test E flooded paddy water application", "conditions": "Flood, 21 days, scale 0 to 100 (0 no effect, 100 complete control)", "method_in_brief": "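Greenhouse pots of Tama silt loam with weeds and rice at 2.0–2.5-leaf stage, flooded to 3 cm; compounds applied directly into paddy water, depth maintained. Visual rating versus untreated controls after 21 days, 0 (no effect) to 100 (complete control); 29.5/26.7 °C, 16-h photoperiod.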"}, "[17]": {"test_system": "water seeded rice seedlings (Oryza sativa cv. ‘Japonica-M202’)", "assay": "Test E flooded paddy water application", "conditions": "Flood, 21 days, scale 0 to 100 (0 no effect, 100 complete control)", "method_in_brief": "as §2"}, "[18]": {"conditions": "Postemergence, 125 g ai/ha, 0 to 100 scale (0 no effect, 100 complete control)"}, "[19]": {"conditions": "Postemergence, 500 g ai/ha, 0 to 100 scale (0 no effect, 100 complete control)"}, "[20]": {"conditions": "Preemergence, 125 g ai/ha, 0 to 100 scale where 0 is no effect and 100 is complete control, approximately ten days"}, "[21]": {"conditions": "Preemergence, 500 g ai/ha, 0 to 100 scale where 0 is no effect and 100 is complete control, approximately ten days"}}}
{"smiles": "CCOC(=O)c1nc(-c2ccc(Cl)cc2F)nc(N)c1Br", "note": "[Compound 69]", "values": [{"measurement": "Plant response rating, Barnyardgrass", "setting": "[1]; [18]", "result": 0}, {"measurement": "Plant response rating, Barnyardgrass", "setting": "[1]; [19]", "result": 5}, {"measurement": "Plant response rating, Barnyardgrass", "setting": "[1]; [20]", "result": 0}, {"measurement": "Plant response rating, Barnyardgrass", "setting": "[1]; [21]", "result": 15}, {"measurement": "Plant response rating, Crabgrass", "setting": "[2]; [18]", "result": 20}, {"measurement": "Plant response rating, Crabgrass", "setting": "[2]; [19]", "result": 40}, {"measurement": "Plant response rating, Crabgrass", "setting": "[2]; [20]", "result": 50}, {"measurement": "Plant response rating, Crabgrass", "setting": "[2]; [21]", "result": 75}, {"measurement": "Plant response rating, Foxtail, Giant", "setting": "[3]; [18]", "result": 0}, {"measurement": "Plant response rating, Foxtail, Giant", "setting": "[3]; [19]", "result": 55}, {"measurement": "Plant response rating, Foxtail, Giant", "setting": "[3]; [20]", "result": 10}, {"measurement": "Plant response rating, Foxtail, Giant", "setting": "[3]; [21]", "result": 50}, {"measurement": "Plant response rating, Morningglory", "setting": "[4]; [18]", "result": 75}, {"measurement": "Plant response rating, Morningglory", "setting": "[4]; [19]", "result": 90}, {"measurement": "Plant response rating, Morningglory", "setting": "[4]; [20]", "result": 0}, {"measurement": "Plant response rating, Morningglory", "setting": "[4]; [21]", "result": 0}, {"measurement": "Plant response rating, Pigweed", "setting": "[5]; [18]", "result": 90}, {"measurement": "Plant response rating, Pigweed", "setting": "[5]; [19]", "result": 90}, {"measurement": "Plant response rating, Pigweed", "setting": "[5]; [20]", "result": 65}, {"measurement": "Plant response rating, Pigweed", "setting": "[5]; [21]", "result": 85}, {"measurement": "Plant response rating, Velvetleaf", "setting": "[6]; [18]", "result": 85}, {"measurement": "Plant response rating, Velvetleaf", "setting": "[6]; [19]", "result": 90}, {"measurement": "Plant response rating, Velvetleaf", "setting": "[6]; [20]", "result": 35}, {"measurement": "Plant response rating, Velvetleaf", "setting": "[6]; [21]", "result": 65}, {"measurement": "Barnyardgrass plant response rating", "setting": "[7]; 32 g ai/ha", "result": 0}, {"measurement": "Barnyardgrass plant response rating", "setting": "[7]; 64 g ai/ha", "result": 0}, {"measurement": "Barnyardgrass plant response rating", "setting": "[7]; 125 g ai/ha", "result": 0}, {"measurement": "Plant response rating, Barnyardgrass", "setting": "[7]; 16 g ai/ha", "result": 0}, {"measurement": "Sprangletop, Brdd. plant response rating", "setting": "[8]; 32 g ai/ha", "result": 0}, {"measurement": "Sprangletop, Brdd. plant response rating", "setting": "[8]; 64 g ai/ha", "result": 0}, {"measurement": "Sprangletop, Brdd. plant response rating", "setting": "[8]; 125 g ai/ha", "result": 0}, {"measurement": "Sprangletop, Brdd. plant response rating", "setting": "[8]; 250 g ai/ha", "result": 0}, {"measurement": "Plant response rating, Sprangletop, Brdd.", "setting": "[8]; 16 g ai/ha", "result": 0}, {"measurement": "Ducksalad plant response rating", "setting": "[9]; 32 g ai/ha", "result": 100}, {"measurement": "Ducksalad plant response rating", "setting": "[9]; 64 g ai/ha", "result": 100}, {"measurement": "Ducksalad plant response rating", "setting": "[9]; 125 g ai/ha", "result": 100}, {"measurement": "Ducksalad plant response rating", "setting": "[9]; 250 g ai/ha", "result": 100}, {"measurement": "Plant response rating, Ducksalad", "setting": "[9]; 16 g ai/ha", "result": 95}, {"measurement": "Watergrass, Early plant response rating", "setting": "[10]; 32 g ai/ha", "result": 0}, {"measurement": "Watergrass, Early plant response rating", "setting": "[10]; 64 g ai/ha", "result": 0}, {"measurement": "Watergrass, Early plant response rating", "setting": "[10]; 125 g ai/ha", "result": 0}, {"measurement": "Watergrass, Early plant response rating", "setting": "[10]; 250 g ai/ha", "result": 0}, {"measurement": "Plant response rating, Watergrass, Early", "setting": "[10]; 16 g ai/ha", "result": 0}, {"measurement": "Junglerice plant response rating", "setting": "[11]; 32 g ai/ha", "result": 0}, {"measurement": "Junglerice plant response rating", "setting": "[11]; 64 g ai/ha", "result": 0}, {"measurement": "Junglerice plant response rating", "setting": "[11]; 125 g ai/ha", "result": 0}, {"measurement": "Junglerice plant response rating", "setting": "[11]; 250 g ai/ha", "result": 0}, {"measurement": "Plant response rating, Junglerice", "setting": "[11]; 16 g ai/ha", "result": 0}, {"measurement": "Watergrass, Late plant response rating", "setting": "[12]; 32 g ai/ha", "result": 0}, {"measurement": "Watergrass, Late plant response rating", "setting": "[12]; 64 g ai/ha", "result": 0}, {"measurement": "Watergrass, Late plant response rating", "setting": "[12]; 125 g ai/ha", "result": 0}, {"measurement": "Watergrass, Late plant response rating", "setting": "[12]; 250 g ai/ha", "result": 0}, {"measurement": "Plant response rating, Watergrass, Late", "setting": "[12]; 16 g ai/ha", "result": 0}, {"measurement": "Redstem plant response rating", "setting": "[13]; 32 g ai/ha", "result": 0}, {"measurement": "Redstem plant response rating", "setting": "[13]; 64 g ai/ha", "result": 0}, {"measurement": "Redstem plant response rating", "setting": "[13]; 125 g ai/ha", "result": 0}, {"measurement": "Redstem plant response rating", "setting": "[13]; 250 g ai/ha", "result": 30}, {"measurement": "Plant response rating, Redstem", "setting": "[13]; 16 g ai/ha", "result": 0}, {"measurement": "Flatsedge, Rice plant response rating", "setting": "[14]; 32 g ai/ha", "result": 70}, {"measurement": "Flatsedge, Rice plant response rating", "setting": "[14]; 64 g ai/ha", "result": 100}, {"measurement": "Flatsedge, Rice plant response rating", "setting": "[14]; 125 g ai/ha", "result": 100}, {"measurement": "Flatsedge, Rice plant response rating", "setting": "[14]; 250 g ai/ha", "result": 100}, {"measurement": "Plant response rating, Flatsedge, Rice", "setting": "[14]; 16 g ai/ha", "result": 65}, {"measurement": "Sedge, Umbrella plant response rating", "setting": "[15]; 32 g ai/ha", "result": 0}, {"measurement": "Sedge, Umbrella plant response rating", "setting": "[15]; 64 g ai/ha", "result": 30}, {"measurement": "Sedge, Umbrella plant response rating", "setting": "[15]; 125 g ai/ha", "result": 90}, {"measurement": "Sedge, Umbrella plant response rating", "setting": "[15]; 250 g ai/ha", "result": 100}, {"measurement": "Plant response rating, Sedge, Umbrella", "setting": "[15]; 16 g ai/ha", "result": 0}, {"measurement": "Rice, Transplanted plant response rating", "setting": "[16]; 32 g ai/ha", "result": 0}, {"measurement": "Rice, Transplanted plant response rating", "setting": "[16]; 64 g ai/ha", "result": 0}, {"measurement": "Rice, Transplanted plant response rating", "setting": "[16]; 125 g ai/ha", "result": 0}, {"measurement": "Rice, Transplanted plant response rating", "setting": "[16]; 250 g ai/ha", "result": 0}, {"measurement": "Plant response rating, Rice, Transplanted", "setting": "[16]; 16 g ai/ha", "result": 0}, {"measurement": "Rice, Water Seeded plant response rating", "setting": "[17]; 32 g ai/ha", "result": 0}, {"measurement": "Rice, Water Seeded plant response rating", "setting": "[17]; 64 g ai/ha", "result": 0}, {"measurement": "Rice, Water Seeded plant response rating", "setting": "[17]; 125 g ai/ha", "result": 0}, {"measurement": "Rice, Water Seeded plant response rating", "setting": "[17]; 250 g ai/ha", "result": 0}, {"measurement": "Plant response rating, Rice, Water Seeded", "setting": "[17]; 16 g ai/ha", "result": 0}]}
